Measurements: patent US8883841B2, “Oncogenic ras-specific cytotoxic compound and methods of use thereof” (The Board of Regents of the University of Texas System, priority 2005, dated 2014)
“Also recorded” adds a separate entry of the source.

How the values were obtained:
caspase-3 and caspase-8 = test: Western blot for cleavage/activation of caspase-3 and caspase-8 in H460 cells; type: cell-based, human; settings: 1 μM, 6 to 24 h, listed as Oncrasin-1
Experimental: Apoptosis induction in H460 cells was also analyzed. H460 cells were treated with 1 μM of Oncrasin-1 for 6 to 24 h. Cells treated with DMSO were used as controls. The cell lysates were then used for a western blot assay to detect the cleavage of caspase-3 and caspase-8. […] After treatment with Oncrasin-1, the expression of some molecules involved in Ras signaling pathways was also evaluated. […] Active Raf-1 can be translocated to mitochondria where it executes antiapoptosis signaling by interaction with Bad or other protein substrates. Raf-1 is also a pivotal regulator of endothelial cell survival during angiogenesis. Ablation of Raf-1 renders cells hypersensitive to apoptosis despite normal regulation of extracellular signal-regulated kinases. Thus, it is possible to induce antitumor activity by suppressing raf-1.
Induction of apoptosis by Oncrasin. Many antitumor therapies act by inducing apoptosis in tumor cells (Fisher, 1994; Thompson, 1995). To determine whether the antitumor activity of Oncrasin-1 is due to the suppression of cell proliferation or to cell killing, T29, T29Kt1, and H460 cells were stained with annexin V/propidium iodide (PI) after treatment with Oncrasin-1 at 30 μM (for T29 or T29Kt1 cells) or 3 μM (for H460 cells). […]

Akt = test: Western blot analysis of Akt; type: cell-based, human; settings: 1 μM, 12 h
Experimental: Ras Signaling Pathway and Molecular Mechanisms of Oncrasin-induced apoptosis. To investigate molecular mechanisms of apoptosis induction by Oncrasin compounds, levels several proteins that are involved in apoptosis and/or involved in Ras signaling pathways were determined, including Bax, Bik, Bc12, Bcl-XL, Raf-1, B-Raf, Akt, Mst1 and atypical protein kinase C (aPKC) zeta and PKCiota. To study which molecules are affected by Oncrasin treatment, T29, T29Kt1 and H460 cells were treated with Oncrasin-1 at an optimal concentration, around IC60 to IC80 for T29Kt1 and H460 cells. Cell lysates were collected 12 h after the treatment and subjected to Western blot analysis.

ASF/SF2 = test: Antibody staining, subcellular localization of ASF/SF2; type: cell-based, human
Text: Effects on RNA spliceosome. To investigate the nature of this PKCiota aggregates in the nucleus, the effect of Oncrasin-1 on SC35, a protein required for RNA splicing and assembly of spliceosome (Fu et al., 1992; Vellard et al., 1992), and on Rad51, a homologous DNA recombinase that involves in DNA repair (Benson et al., 1994; Baumann et al., 1996) were studied. […] and DNA repairing are the two important functions executed in the nucleus. In untreated or DMSO-treated cells, SC35 was localized in nucleus as speckles, either diffusely distributed or concentrated as granule clusters (Mistele et al., 1997), whereas Rad51 was more uniformly distributed inside the nucleus. […] This aggregation of SC35 was not observed in Oncrasin resistant T29 cells upon the treatment with Oncrasin-1. […] The effects of Oncrasin on another spliceosome protein, alternative splicing factor/splicing factor 2 (ASF/SF2), was studied (Krainer et al., 1991). […] In the resistant T29 cells, however, such an aggregation is not observed (FIG. 8C).

Raf-1 mRNA = test: RT-PCR analysis of Raf-1 mRNA in H460 cells; type: cell-based, human
Experimental: (§1) FIGS. 10A-10D Effect of Oncrasin-1 on Raf-1 expression. (FIG. 10A) H460 cells were treated with various concentrations of Oncrasin-1 and harvested 24 h later for Western blot analysis. (FIG. 10B) Reverse transcriptase-based polymerase chain reaction (RT-PCR) assay. H460 cells treated with 1 μM Oncrasin-1 for various times or at various concentrations for 24 h, as indicated. (+, −, positive and negative controls). […] (FIG. 10D) Dose effects of Oncrasin-1 on stable cell lines transfected with Raf-1 plasmids. Parental H460 cells and H460 cells transfected with wild-type Raf-1 (Raf-1), constitutive Raf-1 (Raf-1C), or dominant-negative Raf-1 Raf-1/DN) were treated with various concentrations of Oncrasin-1, and cell viability was determined by SRB assay.
(§2) Suppression of Raf-1 expression by Oncrasin-1. […] To elucidate the roles of Raf-1 in Oncrasin-induced apoptosis, the inventors evaluated the expression of Raf-1 in H460 cells after treatment with different concentrations of Oncrasin-1. […] Because Raf-1 executes anti-apoptosis function via a variety of pathways. […] However, the resistance to Oncrasin-1 was more prominent in the constitutively active Raf-1-transfected cells than in cells with the wild-type Raf-1 (FIG. 10C and FIG. 10D).

[1] = tested on: H460 cells transfected with Raf-1 constructs; test: SRB cell viability of H460 cells stably transfected with Raf-1 plasmids; type: cell-based, human; settings: vs parental H460
Experimental: as §1, §2

O=Cc1cn(Cc2ccc(Cl)cc2)c2ccccc12 [Oncrasin K001, 1H-Indole-3-carboxaldehyde, 1-[(4-chlorophenyl)methyl]-(9CI)]
activation of caspase-3 and caspase-8 (caspase-3 and caspase-8): effectively activated caspase-3 and caspase-8; also recorded: Activation of caspase-3 and caspase-8 was detected; also recorded: effectively induce caspase-3 and caspase-8 activation
Akt level in H460 cells (Akt): down regulation
ASF/SF2 localization, T29Kt1 cells (ASF/SF2): induced ASF/SF2 aggregation inside nucleus
ASF/SF2 aggregation, T29 cells (ASF/SF2; resistant cells): not observed
Raf-1 mRNA level (Raf-1 mRNA): decreased in a dose- and time-dependent fashion
susceptibility of H460 cells transfected with dominant-negative Raf-1 [1]: more sensitive
susceptibility of H460 cells transfected with wild-type or constitutively active Raf-1 [1]: less susceptible than parental H460 cells
toxicity to T29H cells (T29Ht1 cells; at 33 μM (the highest concentration tested)): not toxic
toxicity to T29Ht1 (T29H) cells (T29Ht1 cells; at any of the doses tested (dose response)): not toxic
cytotoxicity in T29Ht1 cells (T29Ht1 cells; up to 100 μM, the highest concentration tested): no detectable cytotoxicity
